By IC50 is commonly meant the concentration that inhibits the measured activity by half. High values mean lower potency, low ones higher potency.

Each structure is given as a SMILES string.

This experiment deals with Mitogen-activated protein kinase 14 (Homo sapiens, UniProt Q16539). The experiment is described as follows: Inhibitory activity against mitogen activated protein (MAP) kinase p38 alpha.
Mitogen-activated protein kinase 14, sequence (Q16539 whole entry): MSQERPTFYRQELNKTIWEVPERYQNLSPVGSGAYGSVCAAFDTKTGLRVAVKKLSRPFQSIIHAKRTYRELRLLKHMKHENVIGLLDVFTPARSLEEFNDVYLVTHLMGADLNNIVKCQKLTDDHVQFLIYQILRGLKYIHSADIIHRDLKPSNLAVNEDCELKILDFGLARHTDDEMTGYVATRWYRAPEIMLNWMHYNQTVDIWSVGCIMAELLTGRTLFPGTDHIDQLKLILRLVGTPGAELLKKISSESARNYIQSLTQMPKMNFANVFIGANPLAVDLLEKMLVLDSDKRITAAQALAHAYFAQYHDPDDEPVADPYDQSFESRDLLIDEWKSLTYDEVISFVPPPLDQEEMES
With `Cn1c(=O)n(C)c2cc(-c3[nH]c(-c4cccs4)nc3-c3cccc(F)c3)ccc21`, it took 390 nM to reach half-maximal inhibition (IC50).
Turning to `CCn1c(=O)n(CC)c2cc(-c3[nH]cnc3-c3cccc(C)c3)ccc21`, the IC50 was determined as 50 nM.
To `Cn1c(=O)n(C)c2cc(-c3c[nH]nc3-c3ccccc3)ccc21` belongs 200 nM; to `CCn1c(=O)n(CC)c2cc(-c3cccnc3-c3cccc(C)c3)ccc21`, over 1000 nM; to `Cc1ccccc1-c1nc(-c2cccs2)[nH]c1-c1ccc2c(c1)n(C)c(=O)n2C`, 6200 nM.
For `CCn1c(=O)n(CC)c2cc(-c3ccnn3-c3cccc(C)c3)ccc21`, it took 690 nM to reach half-maximal inhibition (IC50).
To `CCn1c(=O)n(CC)c2cc(-c3cc(-c4cccnc4)[nH]c3-c3cccc(C)c3)ccc21` belongs over 1000 nM.
The value for `Cc1cccc(-c2nc(C3CCNCC3)[nH]c2-c2ccc3c(c2)n(C)c(=O)n3C)c1` was 70 nM; that for `CCn1c(=O)n(CC)c2cc(-c3[nH]c(-c4cccnc4)nc3-c3cccc(C)c3)ccc21` was 70 nM.
To `CCn1c(=O)n(CC)c2cc(-c3c[nH]nc3-c3cccc(C(F)(F)F)c3)ccc21` belongs 60 nM; to `Cn1c(=O)n(C)c2cc(-c3[nH]c(-c4cccs4)nc3-c3ccccc3)ccc21`, 260 nM.
`CCn1c(=O)n(CC)c2cc(-c3nnnn3-c3ccc(F)c(C)c3)ccc21` displayed an IC50 of over 1000 nM.
The value for `Cc1cccc(-c2nc(-c3cccs3)[nH]c2-c2ccc3c(c2)n(C)c(=O)n3C)c1` was 140 nM; that for `CCc1cccc(-c2[nH]c(-c3cccs3)nc2-c2ccc3c(c2)n(C)c(=O)n3C)c1` was 500 nM.
To `CCn1c(=O)n(CC)c2cc(-c3c[nH]cn3)ccc21` belongs over 1000 nM; to `Cn1c(=O)n(C)c2cc(-c3[nH]c(-c4cccs4)nc3-c3ccc(F)cc3)ccc21`, 270 nM.
The value for `Cc1ccc(-c2nc(-c3cccs3)[nH]c2-c2ccc3c(c2)n(C)c(=O)n3C)cc1` was 1800 nM; that for `CC(C)c1cccc(-c2[nH]c(-c3cccs3)nc2-c2ccc3c(c2)n(C)c(=O)n3C)c1` was over 32000 nM.
Compound `CCn1c(=O)n(CC)c2cc(-c3c[nH]nc3-c3ccc(F)c(C)c3)ccc21` yielded an IC50 of 30 nM. This counts as double-digit nanomolar.
The value for `Cc1cccc(-c2nc(-c3cccnc3)[nH]c2-c2ccc3c(c2)n(C)c(=O)n3C)c1` was 200 nM; that for `Cc1cccc(-n2cncc2-c2ccc3c(c2)n(C)c(=O)n3C)c1` was 14400 nM; that for `CCn1c(=O)n(CC)c2cc(-c3n[nH]cc3-c3cccc(C)c3)ccc21` was 730 nM.
With `Cn1c(=O)n(C)c2cc(-c3[nH]cnc3-c3ccc(F)cc3)ccc21`, it took 140 nM to reach half-maximal inhibition (IC50).
The value for `Cc1cccc(-c2nc[nH]c2-c2ccc3c(c2)n(C)c(=O)n3C)c1` was 100 nM.
The value for `CCn1c(=O)n(CC)c2cc(-c3c[nH]nc3-c3cccc(C)c3)ccc21` was 9 nM; that for `CCn1c(=O)n(CC)c2cc(-c3c(-c4ccc(F)cc4)ncn3C3CCNCC3)ccc21` was 90 nM; that for `Cn1c(=O)n(C)c2cc(-c3[nH]cnc3-c3ccccc3)ccc21` was 290 nM.
To `Cn1c(=O)n(C)c2cc(-c3[nH]c(-c4cccs4)nc3-c3ccccc3Cl)ccc21` belongs 540 nM.
`Cn1c(=O)n(C)c2cc(-c3[nH]c(-c4cccs4)nc3-c3cccc(C(F)(F)F)c3)ccc21` gave an IC50 of 1500 nM.
Turning to `CCc1ccc(-c2[nH]c(-c3cccs3)nc2-c2ccc3c(c2)n(C)c(=O)n3C)cc1`, the midpoint of inhibition, the IC50, lay at 8000 nM.
To `CCn1c(=O)n(CC)c2cc(-c3n[nH]cc3-c3ccccc3)ccc21` belongs 680 nM; to `Cc1cccc(-c2nncn2-c2ccc3c(c2)n(C)c(=O)n3C)c1`, 12500 nM.
For the compound `Cn1c(=O)n(C)c2cc(-c3n[nH]cc3-c3ccccc3)ccc21`, the IC50 stood at 2500 nM.
`Cn1c(=O)n(C)c2cc(-c3[nH]c(-c4ccc([S+](C)[O-])cc4)nc3-c3ccc(F)cc3)ccc21` (stereo not given) yielded an IC50 of 4000 nM. Against the preceding compound, the IC50 is about 1.6-fold higher.
The value for `CCn1c(=O)n(CC)c2cc(-c3[nH]cnc3-c3ccc(F)cc3)ccc21` was 100 nM.
The value for `CCn1c(=O)n(CC)c2cc(-c3[nH]cnc3-c3ccccc3)ccc21` was 140 nM; that for `CCn1c(=O)n(CC)c2cc(-n3nnnc3-c3ccc(F)c(C)c3)ccc21` was over 1000 nM.
To `Cn1c(=O)n(C)c2cc(-c3[nH]c(-c4cccs4)nc3-c3ccccc3F)ccc21` belongs 370 nM; to `Cc1cccc(-c2[nH]c3nc(N)ccc3c2-c2ccc3c(c2)n(C)c(=O)n3C)c1`, 260 nM.
With `Cn1c(=O)n(C)c2cc(-c3[nH]c(-c4cccs4)nc3-c3ccc(Cl)cc3)ccc21`, it took 680 nM to reach half-maximal inhibition (IC50).
The value for `Cn1c(=O)n(C)c2cc(-c3[nH]c(-c4cccs4)nc3-c3cccc(OC(F)(F)F)c3)ccc21` was 15800 nM; that for `CCn1c(=O)n(CC)c2cc(-c3c(-c4cccc(C)c4)nc(C4CCNCC4)n3C)ccc21` was 1250 nM.
Compound `CCn1c(=O)n(CC)c2cc(-c3ocnc3-c3cccc(C)c3)ccc21` gave an IC50 of 800 nM.
The value for `CCn1c(=O)n(CC)c2cc(-c3c[nH]nc3-c3ccccc3)ccc21` was 200 nM.
To `Cn1c(=O)n(C)c2cc(-c3[nH]c(-c4cccs4)nc3-c3cccc(Cl)c3)ccc21` belongs 380 nM.

The values are drawn from ChEMBL document CHEMBL1137961, “Benzimidazolone p38 inhibitors” (Bioorg Med Chem Lett, 2004).
